The supplement of paper PMC10307832

Compound: C1=CC2=NC=CN=C2C=C1/C=C/3\C(=O)NC(=O)S3 + CC(=O)c1c(C)c2cnc(Nc3ccc(N4CCNCC4)cn3)nc2n(C2CCCC2)c1=O [Palbociclib] (partner 0.5 µM)
Assay: relative viability (nuclei count vs DMSO), 5 days (fraction); higher = more cells survive
Conditions: first compound 0.02 µM
Method in brief: (§1)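 A single step with final 0.05% Triton X-100, 1% formaldehyde and 1 ug/ml Hoechst fixed the cells and stained nuclei 5 days after treatment. Lung cancer cell lines in 1536-well plates had been treated by pin tool the day after seeding with one drug alone or a fixed anchor-drug dose plus five library-drug doses (not always all listed) in √10 steps, and nuclei were counted on 4× images. Relative viability is the ratio of nuclei in treated wells to nuclei in vehicle wells, taken as the median of duplicate plates.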

Cell Line	relative viability
HARA	0.27
HCC-78	0.471
NCI-H322M	0.553
LCLC-97TM1	0.239
NCI-H2009	0.241
A-427	0.498
NCI-H441	0.195
NCI-H661	0.397
NCI-H1734	0.328
NCI-H460	0.168
NCI-H2347	0.456
SK-LU-1	0.376
NCI-H1395	0.621
201T	0.341
NCI-H1915	0.538
HCC-827	0.616
LXF-289	0.529
NCI-H23	0.513
NCI-H647	0.314
CAL-12T	0.394
NCI-H1651	0.495
EPLC-272H	0.327
NCI-H2228	0.591
NCI-H1792	0.652
NCI-H1355	0.359
NCI-H3122	0.204
NCI-H1437	0.306

Same assay, conditions: first compound 0.06325 µM

Cell Line	relative viability
HARA	0.261
HCC-78	0.475
NCI-H322M	0.491
LCLC-97TM1	0.214
NCI-H2009	0.241
A-427	0.561
NCI-H441	0.271
NCI-H661	0.453
NCI-H460	0.107
NCI-H2347	0.382
SK-LU-1	0.367
NCI-H1395	0.58
201T	0.347
NCI-H1915	0.578
HCC-827	0.436
LXF-289	0.632
NCI-H23	0.547
NCI-H647	0.488
CAL-12T	0.664
NCI-H1651	0.503
EPLC-272H	0.25
NCI-H2228	0.665
NCI-H1792	0.471
NCI-H1355	0.419
NCI-H3122	0.213
NCI-H1437	0.297

Same assay, conditions: first compound 0.2 µM

Cell Line	relative viability
HARA	0.241
HCC-78	0.483
NCI-H322M	0.477
LCLC-97TM1	0.215
NCI-H2009	0.216
A-427	0.507
NCI-H441	0.24
NCI-H661	0.402
NCI-H1734	0.333
NCI-H460	0.176
NCI-H2347	0.415
SK-LU-1	0.374
NCI-H1395	0.642
201T	0.349
NCI-H1915	0.561
HCC-827	0.425
LXF-289	0.574
NCI-H23	0.577
NCI-H647	0.41
CAL-12T	0.454
NCI-H1651	0.507
EPLC-272H	0.349
NCI-H2228	0.79
NCI-H1792	0.663
NCI-H1355	0.401
NCI-H3122	0.173
NCI-H1437	0.328

Same assay, conditions: first compound 0.6325 µM

Cell Line	relative viability
HARA	0.213
HCC-78	0.535
NCI-H322M	0.454
LCLC-97TM1	0.176
NCI-H2009	0.171
A-427	0.524
NCI-H441	0.193
NCI-H661	0.434
NCI-H1734	0.352
NCI-H460	0.2
NCI-H2347	0.443
SK-LU-1	0.403
NCI-H1395	0.622
201T	0.358
NCI-H1915	0.512
HCC-827	0.51
LXF-289	0.552
NCI-H23	0.509
NCI-H647	0.363
CAL-12T	0.48
NCI-H1651	0.515
EPLC-272H	0.344
NCI-H2228	0.705
NCI-H1792	0.595
NCI-H1355	0.359
NCI-H3122	0.194
NCI-H1437	0.305

Same assay, conditions: first compound 2 µM

Cell Line	relative viability
HARA	0.238
HCC-78	0.423
NCI-H322M	0.455
LCLC-97TM1	0.155
NCI-H2009	0.16
A-427	0.533
NCI-H441	0.112
NCI-H661	0.436
NCI-H1734	0.318
NCI-H460	0.122
NCI-H2347	0.429
SK-LU-1	0.411
NCI-H1395	0.594
201T	0.343
NCI-H1915	0.533
HCC-827	0.473
LXF-289	0.637
NCI-H23	0.349
NCI-H647	0.342
CAL-12T	0.403
NCI-H1651	0.453
EPLC-272H	0.292
NCI-H2228	0.606
NCI-H1792	0.425
NCI-H1355	0.358
NCI-H3122	0.186
NCI-H1437	0.277

Compound: C1=CC2=NC=CN=C2C=C1/C=C/3\C(=O)NC(=O)S3 + COc1cccc2cc(-c3nc([C@H]4CC[C@H](C(=O)O)CC4)n4ncnc(N)c34)[nH]c12 [OSI-027] (partner 0.5 µM)
Assay: as above
Conditions: first compound 0.02 µM
Method in brief: as §1

Cell Line	relative viability
HARA	0.482
HCC-78	0.362
NCI-H322M	0.546
LCLC-97TM1	0.556
NCI-H2009	0.682
A-427	0.476
NCI-H441	0.742
NCI-H661	0.785
NCI-H1734	0.697
NCI-H460	0.727
NCI-H2347	0.505
SK-LU-1	0.371
NCI-H1395	0.667
201T	0.664
NCI-H1915	0.679
HCC-827	0.771
LXF-289	0.744
NCI-H23	0.518
NCI-H647	0.531
CAL-12T	0.489
NCI-H1651	0.711
EPLC-272H	0.303
NCI-H2228	0.665
NCI-H1792	0.722
NCI-H1355	0.383
NCI-H3122	0.935
NCI-H1437	0.941

Same assay, conditions: first compound 0.06325 µM

Cell Line	relative viability
HARA	0.396
HCC-78	0.408
NCI-H322M	0.478
LCLC-97TM1	0.522
NCI-H2009	0.659
A-427	0.55
NCI-H441	0.695
NCI-H661	0.796
NCI-H1734	0.487
NCI-H460	1
NCI-H2347	0.306
SK-LU-1	0.358
NCI-H1395	0.64
201T	0.682
NCI-H1915	0.71
HCC-827	0.725
LXF-289	0.756
NCI-H23	0.58
NCI-H647	0.84
CAL-12T	0.648
NCI-H1651	0.723
EPLC-272H	0.264
NCI-H2228	0.581
NCI-H1792	0.65
NCI-H1355	0.338
NCI-H3122	1.16
NCI-H1437	0.995

Same assay, conditions: first compound 0.2 µM

Cell Line	relative viability
HARA	0.586
HCC-78	0.352
NCI-H322M	0.497
LCLC-97TM1	0.436
NCI-H2009	0.701
A-427	0.54
NCI-H441	0.759
NCI-H661	0.682
NCI-H1734	0.665
NCI-H460	0.781
NCI-H2347	0.412
SK-LU-1	0.332
NCI-H1395	0.738
201T	0.714
NCI-H1915	0.727
HCC-827	0.765
LXF-289	0.788
NCI-H23	0.661
NCI-H647	0.633
CAL-12T	0.741
NCI-H1651	0.794
EPLC-272H	0.307
NCI-H2228	0.525
NCI-H1792	0.728
NCI-H1355	0.402
NCI-H3122	0.89
NCI-H1437	0.922

Same assay, conditions: first compound 0.6325 µM

Cell Line	relative viability
HARA	0.43
HCC-78	0.347
NCI-H322M	0.53
LCLC-97TM1	0.461
NCI-H2009	0.579
A-427	0.435
NCI-H441	0.669
NCI-H661	0.621
NCI-H1734	0.522
NCI-H460	0.525
NCI-H2347	0.5
SK-LU-1	0.396
NCI-H1395	0.588
201T	0.671
NCI-H1915	0.674
HCC-827	0.741
LXF-289	0.804
NCI-H23	0.618
NCI-H647	0.532
CAL-12T	0.542
NCI-H1651	0.658
EPLC-272H	0.256
NCI-H2228	0.661
NCI-H1792	0.666
NCI-H1355	0.396
NCI-H3122	1.03
NCI-H1437	0.784

Same assay, conditions: first compound 2 µM

Cell Line	relative viability
HARA	0.195
HCC-78	0.279
NCI-H322M	0.384
LCLC-97TM1	0.145
NCI-H2009	0.452
A-427	0.365
NCI-H441	0.405
NCI-H661	0.584
NCI-H1734	0.324
NCI-H460	0.394
NCI-H2347	0.276
SK-LU-1	0.207
NCI-H1395	0.583
201T	0.23
NCI-H1915	0.603
HCC-827	0.779
LXF-289	0.395
NCI-H23	0.27
NCI-H647	0.515
CAL-12T	0.33
NCI-H1651	0.527
EPLC-272H	0.287
NCI-H2228	0.335
NCI-H1792	0.294
NCI-H1355	0.258
NCI-H3122	0.46
NCI-H1437	0.197
